# Measurements reported in patent publication US11832615B2 (priority 2013, dated 2023).
# Like-named read-outs stand apart in the source and are kept apart here.
# Key:
# [1] = test system: Ralstonia solanacearum; format: in vivo; details: tomato, 33 days after transplantation
# [2] = test system: Ralstonia solanacearum; format: in vivo; details: tomato, 17 days after transplantation, 10 mgAI/m^2
structure (smiles),measurement,setting,value
"O=S(=O)(CCC(F)=C(F)F)c1ncc(Cl)s1 [Fluensulfone, fluensulfone]",Controlling value (%),"[1]; 400 mgAI/m^2, with Paecilomyces fumosoroseus 3 × 10^9 CFU/m^2 (+)",85%
same,Controlling value (%),"[1]; 400 mgAI/m^2, without Paecilomyces fumosoroseus (−)",0%
"CCOP(=O)(SC(C)CC)N1CCSC1=O (stereo not shown) [Fosthiazate, fosthiazate]",Controlling value (%),"[1]; 300 mgAI/m^2, with Paecilomyces fumosoroseus 3 × 10^9 CFU/m^2 (+)",85%
same,Controlling value (%),"[1]; 300 mgAI/m^2, without Paecilomyces fumosoroseus (−)",0%
"COP(=S)(OC)Oc1ccc([N+](=O)[O-])c(C)c1 [MEP, MEP (fenitrothion)]",Controlling value (%),[2]; with Paecilomyces fumosoroseus 3 × 10^9 CFU/m^2 (+),75%
same,Controlling value (%),[2]; without Paecilomyces fumosoroseus (−),0%
"O=C(NCCc1ncc(C(F)(F)F)cc1Cl)c1ccccc1C(F)(F)F [Fluopyram, fluopyram]",Controlling value (%),"[1]; 10 mgAI/m^2, with Paecilomyces fumosoroseus 3 × 10^9 CFU/m^2 (+)",62%
same,Controlling value (%),"[1]; 10 mgAI/m^2, without Paecilomyces fumosoroseus (−)",0%
"CCOP(=O)(SC(C)CC)SC(C)CC (stereo not shown) [Cadusafos, cadusafos]",Controlling value (%),"[1]; 900 mgAI/m^2, with Paecilomyces fumosoroseus 3 × 10^9 CFU/m^2 (+)",100%
same,Controlling value (%),"[1]; 900 mgAI/m^2, without Paecilomyces fumosoroseus (−)",50%
